From ChEMBL document CHEMBL5338795, “Novel Triazoles with Potent and Broad-Spectrum Antifungal Activity In Vitro and In Vivo” (J Med Chem, 2023)
Values after ≈ are worked out from the molar mass of the structure shown. Active and inactive are the calls of the source. The calls are words filed in the database; no cut-off is given here.

Assays:
Candida albicans [1] = experiment: Antifungal activity against Candida albicans SC5314 assessed as reduction in fungal growth incubated for 24 hrs by CLSI based microdilution analysis; format: functional
[2] = system: Meyerozyma guilliermondii; experiment: Antifungal activity against Meyerozyma guilliermondii ATCC 6260 assessed as reduction in fungal growth incubated for 24 hrs by CLSI based microdilution analysis; format: functional
Candida parapsilosis = experiment: Antifungal activity against Candida parapsilosis ATCC 22019 assessed as reduction in fungal growth incubated for 24 hrs by CLSI based microdilution analysis; format: functional; details: Lodderomyces parapsilosis
Candida tropicalis = experiment: Antifungal activity against Candida tropicalis ATCC 750 assessed as reduction in fungal growth incubated for 24 hrs by CLSI based microdilution analysis; format: functional
Nakaseomyces glabratus = experiment: Antifungal activity against Candida glabrata ATCC 15126 assessed as reduction in fungal growth incubated for 24 hrs by CLSI based microdilution analysis; format: functional
Cryptococcus neoformans = experiment: Antifungal activity against Cryptococcus neoformans CGMCC3 1563 assessed as reduction in fungal growth incubated for 72 hrs by CLSI based microdilution analysis; format: functional
Aspergillus fumigatus [3] = experiment: Antifungal activity against Aspergillus fumigatus CGMCC3 7795 assessed as reduction in fungal growth incubated for 48 hrs by CLSI based microdilution analysis; format: functional
Candida albicans [4] = experiment: Antifungal activity against fluconazole-resistant Candida albicans 102 assessed as inhibition of fungal growth measured for 24 hrs by CLSI based microdilution analysis; format: functional
Candida albicans [5] = experiment: Antifungal activity against fluconazole-resistant Candida albicans 13 assessed as inhibition of fungal growth measured for 24 hrs by CLSI based microdilution analysis; format: functional
Candida albicans [6] = experiment: Antifungal activity against fluconazole-resistant Candida albicans 15 assessed as inhibition of fungal growth measured for 24 hrs by CLSI based microdilution analysis; format: functional
Candida albicans [7] = experiment: Antifungal activity against fluconazole-resistant Candida albicans 901 assessed as inhibition of fungal growth measured for 24 hrs by CLSI based microdilution analysis; format: functional
Candida albicans [8] = experiment: Antifungal activity against fluconazole-resistant Candida albicans 24D assessed as inhibition of fungal growth measured for 24 hrs by CLSI based microdilution analysis; format: functional
Candida albicans [9] = experiment: Antifungal activity against fluconazole-resistant Candida albicans 112869 assessed as inhibition of fungal growth measured for 24 hrs by CLSI based microdilution analysis; format: functional
[10] = Hemolytic activity in mouse RBC assessed as hemolysis at 100 microg/ml incubated for 60 mins relative to control; format: toxicity, cell-based, Erythrocyte; details: red blood cells (erythrocytes), at 100 µg/mL, read-out: Activity
Cytochrome P450 3A4 = Cytochrome P450 3A4 (Homo sapiens, UniProt P08684); experiment: Inhibition of CYP3A4 in human liver microsomes using testosterone as substrate preincubated for 5 mins followed by NADPH addition and measured after 5 mins by LC-MS/MS analysis; format: ADME, Microsome
Cytochrome P450 3A4, sequence (P08684 whole entry): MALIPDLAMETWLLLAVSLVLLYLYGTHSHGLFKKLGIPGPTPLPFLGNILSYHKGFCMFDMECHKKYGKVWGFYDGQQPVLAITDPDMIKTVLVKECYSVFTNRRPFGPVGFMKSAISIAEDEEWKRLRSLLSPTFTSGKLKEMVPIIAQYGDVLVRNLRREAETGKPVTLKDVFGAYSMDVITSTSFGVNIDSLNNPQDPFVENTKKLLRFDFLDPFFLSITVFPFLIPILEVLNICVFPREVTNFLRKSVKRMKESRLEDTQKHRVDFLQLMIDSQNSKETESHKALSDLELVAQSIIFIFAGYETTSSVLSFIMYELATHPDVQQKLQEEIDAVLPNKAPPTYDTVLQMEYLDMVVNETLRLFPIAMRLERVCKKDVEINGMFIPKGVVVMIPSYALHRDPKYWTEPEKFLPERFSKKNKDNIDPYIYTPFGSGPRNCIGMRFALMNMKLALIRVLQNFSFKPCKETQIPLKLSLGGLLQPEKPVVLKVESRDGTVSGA

CYP3A4 = experiment: Selectivity index, ratio of MIC80 for antifungal activity against Candida albicans to IC50 for inhibition of CYP3A4 in human liver microsomes; format: toxicity; details: read-out: Selectivity Index
Candida albicans [11] = experiment: Induction of resistance development in Candida albicans SC5314 assessed as increase in MIC treated over 8 serial passages by microdilution assay; format: functional
Candida albicans [12] = experiment: Induction of resistance development in Candida albicans SC5314 assessed as fold increase in MIC treated over 20 serial passages by microdilution assay; format: functional
[13] = target: T1, Lanosterol 14-alpha demethylase (Candida albicans (strain SC5314 / ATCC MYA-2876) (Yeast), UniProt P10613); experiment: Inhibition of CYP51 in Candida albicans […] assessed as decrease in ergosterol biosynthesis level at 1 times MIC80 incubated for 16 hrs by GC-MS analysis (Rvb=67.2%)
T1 sequence (P10613 whole entry): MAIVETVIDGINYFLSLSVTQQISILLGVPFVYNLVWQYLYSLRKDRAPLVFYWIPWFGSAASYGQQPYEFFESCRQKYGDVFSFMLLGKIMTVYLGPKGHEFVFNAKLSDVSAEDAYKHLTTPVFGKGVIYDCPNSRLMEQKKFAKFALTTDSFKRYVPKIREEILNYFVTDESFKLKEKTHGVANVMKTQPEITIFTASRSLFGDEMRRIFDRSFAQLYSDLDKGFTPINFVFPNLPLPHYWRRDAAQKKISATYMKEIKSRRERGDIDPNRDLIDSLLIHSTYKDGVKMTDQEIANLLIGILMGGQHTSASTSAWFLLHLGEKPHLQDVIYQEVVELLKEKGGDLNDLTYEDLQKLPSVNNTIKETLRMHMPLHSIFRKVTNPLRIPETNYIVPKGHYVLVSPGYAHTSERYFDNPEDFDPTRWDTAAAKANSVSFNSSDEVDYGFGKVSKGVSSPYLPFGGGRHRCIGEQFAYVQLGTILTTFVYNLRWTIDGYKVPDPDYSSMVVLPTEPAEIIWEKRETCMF

[14] = target: T1, Lanosterol 14-alpha demethylase; experiment: Inhibition of CYP51 in Candida albicans […] assessed as decrease in unknown sterol biosynthesis level at 1 times MIC80 incubated for 16 hrs by GC-MS analysis relative to control
[15] = target: T1, Lanosterol 14-alpha demethylase; experiment: Inhibition of CYP51 in Candida albicans […] assessed as decrease in lanosterol biosynthesis level at 0.5 times MIC80 incubated for 16 hrs by GC-MS analysis relative to control
[16] = target: T1, Lanosterol 14-alpha demethylase; experiment: Inhibition of CYP51 in Candida albicans […] assessed as decrease in ergosterol biosynthesis level at 0.5 times MIC80 incubated for 16 hrs by GC-MS analysis (Rvb=67.2%)
[17] = target: T1, Lanosterol 14-alpha demethylase; experiment: Inhibition of CYP51 in Candida albicans SC3514 assessed as decrease in eburicol biosynthesis level at 0.5 times MIC80 incubated for 16 hrs by GC-MS analysis (Rvb=21.38%)
[18] = target: T1, Lanosterol 14-alpha demethylase; experiment: Inhibition of CYP51 in Candida albicans […] assessed as decrease in unknown sterol biosynthesis level at 0.5 times MIC80 incubated for 16 hrs by GC-MS analysis relative to control
Candida albicans [19] = experiment: In-vivo antifungal activity against Candida albicans […] infected in ICR mouse model assessed as median survival time at 1 mg/kg, ip administered once daily pretreated for 24 hrs followed by infection and measured every 2 hrs for 5 days; format: functional; details: time 144 hrs
Aspergillus fumigatus [20] = experiment: In-vivo antifungal activity against Aspergillus fumigatus CGMCC3 7795 infected in ip dosed ICR mouse model assessed as median survival time administered once daily pretreated for 24 hrs followed by infection and measured every 2 hrs for 5 days; format: functional, organism-based; details: dose 1.0 mg/kg, time 144.0 hrs
Candida albicans [21] = experiment: In-vivo antifungal activity against multidrug-resistant Candida albicans 24D infected in ICR mouse model assessed as median survival time at 1 mg/kg, ip administered once daily pretreated for 24 hrs followed by infection and measured every 2 hrs for 5 days; format: functional; details: time 144 hrs
Candida albicans [22] = experiment: In-vivo antifungal activity against Candida albicans […] infected in skin infected ICR mouse model assessed as wound healing at 1 mg/kg, ip pretreated for 24 hrs followed by infection and measured for 5 days; format: functional, organism-based; details: time 144.0 hrs
Candida albicans [23] = experiment: In-vivo antifungal activity against Candida albicans […] infected in skin infected ICR mouse model assessed as wound healing at 0.5 mg/kg, ip pretreated for 24 hrs followed by infection and measured for 5 days; format: functional, organism-based; details: time 144.0 hrs
Candida albicans [24] = experiment: In-vivo antifungal activity against Candida albicans […] infected in skin infected ICR mouse model assessed as reduction in fungal burden in skin at 1 mg/kg, ip pretreated for 24 hrs followed by infection and measured for 5 days by Periodic acid-Schiff staining based analysis; format: functional, organism-based; details: time 144.0 hrs
Candida albicans [25] = experiment: In-vivo antifungal activity against Candida albicans […] infected in skin infected ICR mouse model assessed as reduction in fungal burden in skin at 0.5 mg/kg, ip pretreated for 24 hrs followed by infection and measured for 5 days by Periodic acid-Schiff staining based analysis; format: functional, organism-based; details: time 144.0 hrs
[26] = Half life in Sprague-Dawley rat at 2 mg/kg, iv measured at 0.08 to 24 hrs by LC-MS/MS analysis; format: ADME, organism-based; details: in vivo, time 0.08-24 hrs
[27] = Clearance in Sprague-Dawley rat at 2 mg/kg, iv measured at 0.08 to 24 hrs by LC-MS/MS analysis; format: ADME, organism-based; details: in vivo, time 0.08-24 hrs
[28] = AUC (0 to infinity) in Sprague-Dawley rat at 2 mg/kg, iv measured at 0.08 to 24 hrs by LC-MS/MS analysis; format: ADME, organism-based; set-up: time 0.08-24 hrs, dose 2 mg/kg, route iv; details: in vivo

Row | Structure (SMILES) | MIC80 (Candida albicans [1]) [µg/mL] | MIC80 [2] [µg/mL] | MIC80 (Candida parapsilosis) [µg/mL] | MIC80 (Candida tropicalis) [µg/mL] | MIC80 (Nakaseomyces glabratus) [µg/mL] | MIC80 (Cryptococcus neoformans) [µg/mL] | MIC80 (Aspergillus fumigatus [3]) [µg/mL] | MIC80 (Candida albicans [4]) [µg/mL] | MIC80 (Candida albicans [5]) [µg/mL] | MIC80 (Candida albicans [6]) [µg/mL] | MIC80 (Candida albicans [7]) [µg/mL] | MIC80 (Candida albicans [8]) [µg/mL] | MIC80 (Candida albicans [9]) [µg/mL] | hemolysis at 1 h, 100 microg/ml [10] [%] | IC50 (Cytochrome P450 3A4) [nM] | further results
1 | OC(CN1CCN(CCCn2ccc3cc(Br)ccc32)CC1)(Cn1cncn1)c1ccc(F)cc1F (stereo not given) | 0.031 (≈ 0.0554 µM) | 0.015 (≈ 0.0268 µM) | 0.062 (≈ 0.111 µM) | 0.312 (≈ 0.558 µM) | 0.312 (≈ 0.558 µM) | 0.031 (≈ 0.0554 µM) | 0.625 (≈ 1.12 µM) | 0.062 (≈ 0.111 µM) | 0.031 (≈ 0.0554 µM) | 1.25 (≈ 2.23 µM) | 1.25 (≈ 2.23 µM) | 0.062 (≈ 0.111 µM) | 0.125 (≈ 0.223 µM) | 5.9 | 130 | 
2 | O[C@@](CN1CCN(CCn2ccc3cc(Br)ccc32)CC1)(Cn1cncn1)c1ccc(F)cc1F | 0.004 (≈ 0.00733 µM) | 0.015 (≈ 0.0275 µM) | 0.008 (≈ 0.0147 µM) | 0.078 (≈ 0.143 µM) | 0.078 (≈ 0.143 µM) | 0.015 (≈ 0.0275 µM) | 0.625 (≈ 1.15 µM) | 0.015 (≈ 0.0275 µM) | 0.015 (≈ 0.0275 µM) | 0.312 (≈ 0.572 µM) | 1.25 (≈ 2.29 µM) | 0.031 (≈ 0.0568 µM) | 0.031 (≈ 0.0568 µM) | 1.9 | 400 | selectivity ratio (CYP3A4): 100; Activity (Candida albicans [11]): Active; fold change (FC) (Candida albicans [12]): 8; inhibition (INH) [13]: 5.41%; inhibition (INH) [14]: 27.03%; inhibition (INH) [15]: 13.8%; inhibition (INH) [16]: 33.33%; inhibition (INH) [17]: 21.3%; inhibition (INH) [18]: 14.9%; Time (Candida albicans [19]): 6 days; Activity (Aspergillus fumigatus [20]): Dose-Dependent Effect; Time (Candida albicans [21]): 12 days; Activity (Candida albicans [22]): Active; Activity (Candida albicans [23]): Active; Activity (Candida albicans [24]): Active; Activity (Candida albicans [25]): Active; half-life [26]: 1.04 h; clearance [27]: 26.7 mL/min/kg; AUC(0-inf) [28]: 1260 ng·h/mL
3 | O=[N+]([O-])c1ccc2c(ccn2CCN2CCN(CC(O)(Cn3cncn3)c3ccc(F)cc3F)CC2)c1 (stereo not given) | 0.031 (≈ 0.0606 µM) | 0.062 (≈ 0.121 µM) | 0.062 (≈ 0.121 µM) | 0.312 (≈ 0.61 µM) | 0.312 (≈ 0.61 µM) | 0.031 (≈ 0.0606 µM) | 1.25 (≈ 2.44 µM) | 0.031 (≈ 0.0606 µM) | 0.062 (≈ 0.121 µM) | 1.25 (≈ 2.44 µM) | 1.25 (≈ 2.44 µM) | 0.031 (≈ 0.0606 µM) | 0.062 (≈ 0.121 µM) |  |  | 
4 | OC(CN1CCN(CCCn2ccc3cc(Cl)ccc32)CC1)(Cn1cncn1)c1ccc(F)cc1F (stereo not given) | 0.031 (≈ 0.0602 µM) | 0.125 (≈ 0.243 µM) | 0.062 (≈ 0.12 µM) | 0.625 (≈ 1.21 µM) | 0.312 (≈ 0.606 µM) | 0.031 (≈ 0.0602 µM) | 5 (≈ 9.71 µM) | 0.062 (≈ 0.12 µM) | 0.062 (≈ 0.12 µM) | 2.5 (≈ 4.85 µM) | 2.5 (≈ 4.85 µM) | 0.062 (≈ 0.12 µM) | 0.062 (≈ 0.12 µM) |  |  | 
